# Patent publication US9573911B2, “Diphosphate mimetics and uses thereof” (President and Fellows of Harvard College, priority 2011, dated 2017)
# Where two headings read alike, the source gives them in different places.
# Legend:
# Assay type in all cases: biochemical
# SGK (SGK1) = molecular target: T1, SGK (SGK1) (Homo sapiens, UniProt O00141); assay: Further kinase screen, Invitrogen Z'-LYTE; conditions: Table 3
# T1 construct: purchased Invitrogen
# T1 sequence (O00141 1-431): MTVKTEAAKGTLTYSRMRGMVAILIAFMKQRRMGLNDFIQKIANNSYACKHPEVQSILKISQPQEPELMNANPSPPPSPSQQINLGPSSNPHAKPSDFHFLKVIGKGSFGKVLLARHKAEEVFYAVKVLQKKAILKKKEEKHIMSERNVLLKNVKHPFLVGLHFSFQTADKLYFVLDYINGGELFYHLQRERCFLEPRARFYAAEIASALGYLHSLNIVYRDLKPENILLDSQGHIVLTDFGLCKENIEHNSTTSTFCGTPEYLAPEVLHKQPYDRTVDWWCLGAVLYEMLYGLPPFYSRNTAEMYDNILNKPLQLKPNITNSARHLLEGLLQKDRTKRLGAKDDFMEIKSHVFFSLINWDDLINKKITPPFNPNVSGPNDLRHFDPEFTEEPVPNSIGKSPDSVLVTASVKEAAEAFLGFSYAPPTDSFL
# Description: (§1) Kinase profiling was conducted using Invitrogen Z'-LYTE screening protocol and assay conditions found at www.invitrogen.com. Compound (2) inhibited PLK1 completely at 5 μM.
# (§2) A further kinase screen was performed on Compounds (2), (4A), and (4B) using the assay described above.
# MARK3 = molecular target: T2, MARK3 (Homo sapiens, UniProt P27448); assay: Further kinase screen, Invitrogen Z'-LYTE; conditions: Table 3
# T2 construct: purchased Invitrogen
# Description: as §1, §2
# OGT = molecular target: T3, OGT (Homo sapiens, UniProt O15294); assay: IC50 assay, OGT peptide-capture assay
# T3 construct: hOGT4.5 construct (spanning residues 313-1031 based on the numbering of the full length human protein); made in house
# T3 sequence (O15294 313-1031 isoform O15294-3): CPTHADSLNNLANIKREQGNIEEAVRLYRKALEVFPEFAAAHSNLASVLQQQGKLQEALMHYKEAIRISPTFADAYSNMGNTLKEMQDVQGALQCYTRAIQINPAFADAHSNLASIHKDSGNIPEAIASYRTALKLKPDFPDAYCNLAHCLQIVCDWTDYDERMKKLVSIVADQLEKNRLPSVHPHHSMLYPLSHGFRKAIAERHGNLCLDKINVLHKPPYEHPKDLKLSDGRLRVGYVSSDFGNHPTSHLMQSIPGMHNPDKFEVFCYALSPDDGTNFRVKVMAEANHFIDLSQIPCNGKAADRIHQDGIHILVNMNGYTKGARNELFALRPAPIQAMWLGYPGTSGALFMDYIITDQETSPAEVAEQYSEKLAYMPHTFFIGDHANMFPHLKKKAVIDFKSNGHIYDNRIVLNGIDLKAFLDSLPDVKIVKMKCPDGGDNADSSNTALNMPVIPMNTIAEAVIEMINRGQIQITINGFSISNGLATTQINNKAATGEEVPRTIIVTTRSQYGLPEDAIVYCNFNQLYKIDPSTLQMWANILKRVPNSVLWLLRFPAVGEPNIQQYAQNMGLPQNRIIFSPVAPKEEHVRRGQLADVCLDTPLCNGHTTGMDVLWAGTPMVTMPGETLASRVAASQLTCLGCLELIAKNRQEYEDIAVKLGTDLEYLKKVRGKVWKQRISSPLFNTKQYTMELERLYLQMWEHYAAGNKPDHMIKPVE
# Description: IC50 Assay of Thiocarbamate to OGT.
# Enzyme activity was tested with the peptide-capture assay in the presence of different concentrations of each compound as previously reported (J. Am. Chem. Soc. 2005, 127, 14588-14589).
# PLK1 = molecular target: T4, PLK1 (Homo sapiens, UniProt P53350); assay: Kinase profiling, Invitrogen Z'-LYTE; conditions: for % Inhibition Point 1 / % Inhibition Point 2 / % Inhibition mean / inhibition at 5 µM: PLK1; for % Inhibition Point 1 / % Inhibition Point 2 / % Inhibition mean: Table 3 further screen; for inhibition at 5 µM: Table 2
# T4 construct: purchased Invitrogen
# Description: as §1, §2
# ADRBK1 (GRK2) = molecular target: T5, ADRBK1 (GRK2) (Homo sapiens, UniProt P25098); assay: Kinase profiling, Invitrogen Z'-LYTE
# T5 construct: purchased Invitrogen
# T5 sequence (P25098 1-689): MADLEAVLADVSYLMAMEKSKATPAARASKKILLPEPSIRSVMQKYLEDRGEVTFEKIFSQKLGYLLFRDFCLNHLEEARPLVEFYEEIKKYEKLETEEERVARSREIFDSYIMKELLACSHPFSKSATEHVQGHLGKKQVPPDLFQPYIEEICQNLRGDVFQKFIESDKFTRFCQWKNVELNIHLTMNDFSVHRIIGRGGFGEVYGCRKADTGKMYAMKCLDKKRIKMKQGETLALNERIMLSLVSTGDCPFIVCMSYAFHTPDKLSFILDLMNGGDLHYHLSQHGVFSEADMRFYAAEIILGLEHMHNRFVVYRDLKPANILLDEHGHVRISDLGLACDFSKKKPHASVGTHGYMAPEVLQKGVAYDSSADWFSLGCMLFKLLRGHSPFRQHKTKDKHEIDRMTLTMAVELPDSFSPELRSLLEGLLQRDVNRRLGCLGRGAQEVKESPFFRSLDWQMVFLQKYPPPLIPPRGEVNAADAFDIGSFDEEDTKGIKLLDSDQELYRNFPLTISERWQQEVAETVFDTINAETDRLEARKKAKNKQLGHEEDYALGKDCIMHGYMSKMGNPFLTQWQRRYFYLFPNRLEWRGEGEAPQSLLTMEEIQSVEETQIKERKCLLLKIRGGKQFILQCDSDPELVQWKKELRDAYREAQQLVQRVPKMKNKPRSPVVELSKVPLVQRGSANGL
# Description: as §1, §2
# [1] = peptide-capture assay, different concentrations of each compound, read-out: IC50 Values
# T4 sequence (P53350 whole entry): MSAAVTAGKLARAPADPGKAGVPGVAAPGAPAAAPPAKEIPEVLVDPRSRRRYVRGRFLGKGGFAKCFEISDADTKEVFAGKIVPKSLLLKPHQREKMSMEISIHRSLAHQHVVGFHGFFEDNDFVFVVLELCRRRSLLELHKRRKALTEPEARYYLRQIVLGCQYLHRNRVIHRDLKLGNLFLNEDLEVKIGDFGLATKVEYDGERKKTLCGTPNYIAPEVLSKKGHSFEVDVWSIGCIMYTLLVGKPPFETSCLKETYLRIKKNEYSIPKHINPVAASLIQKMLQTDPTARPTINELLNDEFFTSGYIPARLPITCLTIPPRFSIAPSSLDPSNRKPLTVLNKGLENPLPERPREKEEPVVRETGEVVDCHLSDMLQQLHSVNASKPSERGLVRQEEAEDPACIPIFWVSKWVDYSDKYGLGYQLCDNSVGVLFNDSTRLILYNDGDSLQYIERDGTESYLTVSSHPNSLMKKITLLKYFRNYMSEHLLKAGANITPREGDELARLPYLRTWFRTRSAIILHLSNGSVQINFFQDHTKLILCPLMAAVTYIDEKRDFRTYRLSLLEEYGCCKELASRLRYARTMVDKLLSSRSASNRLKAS
# T2 sequence (P27448 whole entry): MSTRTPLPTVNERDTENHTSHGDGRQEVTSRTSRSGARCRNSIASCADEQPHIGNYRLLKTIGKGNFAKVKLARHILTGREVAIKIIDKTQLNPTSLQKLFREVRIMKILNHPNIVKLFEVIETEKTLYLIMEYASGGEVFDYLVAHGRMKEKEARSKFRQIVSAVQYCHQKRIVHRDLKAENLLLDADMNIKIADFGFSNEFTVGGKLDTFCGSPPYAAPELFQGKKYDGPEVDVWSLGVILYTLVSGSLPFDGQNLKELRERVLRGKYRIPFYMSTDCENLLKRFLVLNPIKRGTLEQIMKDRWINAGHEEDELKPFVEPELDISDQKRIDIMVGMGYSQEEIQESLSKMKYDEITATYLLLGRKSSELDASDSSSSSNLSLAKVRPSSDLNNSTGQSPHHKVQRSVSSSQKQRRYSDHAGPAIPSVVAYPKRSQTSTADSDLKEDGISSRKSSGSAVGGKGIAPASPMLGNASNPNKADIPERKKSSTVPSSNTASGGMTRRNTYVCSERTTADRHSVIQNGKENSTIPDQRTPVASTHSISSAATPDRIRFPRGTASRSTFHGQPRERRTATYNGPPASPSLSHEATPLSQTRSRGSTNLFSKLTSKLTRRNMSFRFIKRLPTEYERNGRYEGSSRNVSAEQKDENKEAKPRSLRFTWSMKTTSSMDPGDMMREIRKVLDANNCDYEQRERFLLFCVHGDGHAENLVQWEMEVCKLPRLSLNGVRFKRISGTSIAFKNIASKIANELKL
smiles,measurement,setting,value
COc1ccc(OC(=O)n2c(=S)oc3cc(C(C)=O)ccc32)cc1 [Compound 4B],% Inhibition Point 1,SGK (SGK1),72%
same,% Inhibition Point 2,SGK (SGK1),73%
same,% Inhibition mean,SGK (SGK1),73%
same,% Inhibition Point 1,MARK3,34%
same,% Inhibition Point 2,MARK3,36%
same,% Inhibition mean,MARK3,35%
same,IC50,OGT; [1],~100 µM
same,% Inhibition Point 1,PLK1,98%
same,% Inhibition Point 2,PLK1,101%
same,% Inhibition mean,PLK1,100%
same,% Inhibition Point 1,ADRBK1 (GRK2); Table 3 further screen,7%
same,% Inhibition Point 2,ADRBK1 (GRK2); Table 3 further screen,6%
same,% Inhibition mean,ADRBK1 (GRK2); Table 3 further screen,7%
COc1ccc(OC(=O)n2c(=O)oc3cc(C(C)=O)ccc32)cc1 [Compound 2],% Inhibition Point 1,SGK (SGK1),−234%
same,% Inhibition Point 2,SGK (SGK1),−237%
same,% Inhibition mean,SGK (SGK1),−236%
same,IC50,OGT; [1],2 µM
same,IC50,OGT; read-out: apparent IC50,1.6 ± 1.1 µM
same,PLK1 inhibition,PLK1; 5 μM,completely
same,inhibition at 5 µM,"PLK1; 5 μM, read-out: % Inhibition Point 1",104%
same,inhibition at 5 µM,"PLK1; 5 μM, read-out: % Inhibition Point 2",104%
same,inhibition at 5 µM,"PLK1; 5 μM, read-out: % Inhibition mean",104%
same,% Inhibition Point 1,PLK1,101%
same,% Inhibition Point 2,PLK1,101%
same,% Inhibition mean,PLK1,101%
same,% Inhibition Point 1,ADRBK1 (GRK2); Table 2,2%
same,% Inhibition Point 2,ADRBK1 (GRK2); Table 2,5%
same,% Inhibition mean,ADRBK1 (GRK2); Table 2,4%
same,% Inhibition Point 1,ADRBK1 (GRK2); Table 3 further screen,4%
same,% Inhibition Point 2,ADRBK1 (GRK2); Table 3 further screen,7%
same,% Inhibition mean,ADRBK1 (GRK2); Table 3 further screen,5%
COc1ccc(OC(=S)n2c(=O)oc3cc(C(C)=O)ccc32)cc1 [Compound 4A],% Inhibition Point 1,SGK (SGK1),76%
same,% Inhibition Point 2,SGK (SGK1),75%
same,% Inhibition mean,SGK (SGK1),76%
same,% Inhibition Point 1,MARK3,8%
same,% Inhibition Point 2,MARK3,12%
same,% Inhibition mean,MARK3,10%
same,IC50,OGT; [1],14 µM
same,% Inhibition Point 1,PLK1,70%
same,% Inhibition Point 2,PLK1,65%
same,% Inhibition mean,PLK1,68%
same,% Inhibition Point 1,ADRBK1 (GRK2); Table 3 further screen,3%
same,% Inhibition Point 2,ADRBK1 (GRK2); Table 3 further screen,7%
same,% Inhibition mean,ADRBK1 (GRK2); Table 3 further screen,5%
